Reference: PMC9655874, “Analysis of Volatile Secondary Metabolites in Ocimum basilicum Cell Suspensions: Inhibition, In Silico Molecular Docking, and an ADMET Analysis against Proteolytic Enzymes of Rhynchophorus ferrugineus” (Plants, 2022)
≈ marks a conversion by molar mass, not a printed value. Where “and” joins values, the source holds several entries; their conditions need not be identical. Identical values can stand only once.

tested on: R. ferrugineus adults; assay: whole plant or invertebrate; format: in vivo; conditions: Rhynchophorus ferrugineus, read-out: LC50 (µg/mL) 95% CF
Description: (§1) Cells were suspended in the methanolic extract at serially increasing concentrations for 40 days. To dilute the compounds, TritonX-100 (0.1%) was added to acetone after the chemicals were dissolved. Adults or larvae of R. ferrugineus were purchased. They were then cultured using long lengths of sugar cane stem. The extracts’ anti-larvae action was assessed by applying topically to larvae and keeping them at 4–5 °C for 5 min. Utilizing a manually controlled micro-applicator, each larva had extract injected into its dorsum in three separate 10 µL doses using a 50-ll micro-syringe from Hertfordshire, UK’s Burkard Manufacturing Co., Ltd. (MS-N50; Shizuoka, Japan’s Ito Corp.). Five larvae in a box with three replications were fed on portions of long sugarcane stem measuring 10 cm. […] The sugarcane stem’s ten-centimeter-long portions cut into equal longitudinal halves were used to measure the antifeedant activity against adults. Long sections of sugarcane stem with a surface area of approximately 32.2 cm^2 were dried in air at room temperature, assuming a dipping time of 10 s and an initial serial concentration of (10 mL). Each treated object remained in a plastic container. Each box included an additional pair (male and female). Each therapy was administered ten times. In total, 24-, 48-, 72-, and 96-h feeding observations were assessed.
(§2) Statistics and probit analysis were performed using SPSS 25.0, as mentioned by Finney. To sum up, all numerical predictions of toxicity variables and findings were presented as the mean ± SE. We regressed mortality and translated the resulting dosage to an LC50 value (µg/mL). […] Enzyme activity data were analyzed using an ANOVA. Means were separated using the SNK (Student–Newman–Keuls) test, and deviations at the p ˂ 0.05 level were considered noteworthy.

Question: With `C=C1CC/C=C(\C)CC[C@@H]2[C@@H]1CC2(C)C` [β-caryophyllene] as the molecule, how does the LC50 read?
Answer: 1520 µg/mL (≈ 7450 µM)

Question: For `C=CC(=C)CCC=C(C)CCC=C(C)C` [β-farnesene], which LC50 is on record?
Answer: 1360 µg/mL (≈ 6640 µM)

tested on: cysteine protease of R. ferrugineus midgut; assay: Cysteine protease activity in midgut of treated larvae (in vivo); parameters: species or system Rhynchophorus ferrugineus; conditions: larvae treated 24 h, midgut preparation
Description: (§3) Utilizing the substrate N-benzoyl-Phe-Val-Arg-p-nitroanilide hydrochloride and certain modifications, the cysteine proteinases of R. ferrugineus homogenate from the fourth midgut instar was tested for activity. Ten larvae of the fourth midgut were carefully taken out, dissected, and periodically washed with 0.9% (w/v) NaCl solution, assay buffer containing 50 mM HEPS, 5 mM DTT, and 0.1% Triton X-100 (v/v) (pH 8.0, 500 µL) was used to homogenize the samples. The homogenates were spun using a cooling Sigma 3k30 centrifuge for 30 min at 5000 rpm. […] Before introducing 100 µL of the substrate, 10 µL of the supernatant was incubated in assay buffer (60 µL, pH = 8) at 37 °C for 30 min. Enzyme samples in 10 µL were incubated for 10 min with iodoacetic acid before the addition of the substrate. […] The absorbance at 520 nm was measured after spinning the reaction for 6 min at 5000 rpm. The activity in the midgut was assayed at OD520.60 min^−1 mg^−1 of protein with an ELISA rapid reader.

Question: Which “IC50 cysteine protease (in vivo)” value does the source give for `C=C1CC/C=C(\C)CC[C@@H]2[C@@H]1CC2(C)C` [β-caryophyllene] here?
Answer: 586.3 µg/mL (≈ 2870 µM)

Question: With `C=CC(=C)CCC=C(C)CCC=C(C)C` [β-farnesene] as the molecule, how does the “IC50 cysteine protease (in vivo)” value read?
Answer: 536.8 µg/mL (≈ 2630 µM)

biological target: cysteine protease of R. ferrugineus midgut; assay: Cysteine proteinase activity (in vitro); format: biochemical, Rhynchophorus ferrugineus; conditions: 4th instar midgut homogenate
Description: as §3

Question: How did the “IC50 cysteine protease (in vitro)” value turn out when `C=C1CC/C=C(\C)CC[C@@H]2[C@@H]1CC2(C)C` [β-caryophyllene] was run?
Answer: 204.4 µg/mL (≈ 1000 µM)

Question: With `C=CC(=C)CCC=C(C)CCC=C(C)C` [β-farnesene] as the molecule, how does the “IC50 cysteine protease (in vitro)” value read?
Answer: 128.4 µg/mL (≈ 628 µM)

biological target: elastase of R. ferrugineus midgut; assay: Serine proteinase specific activity, elastase (in vitro); format: biochemical, Rhynchophorus ferrugineus; conditions: 4th instar midgut homogenate

Question: How did the “IC50 elastase (in vitro)” value turn out when `CC1=CCC(C(C)C)=CC1` [γ-terpinene] was run?
Answer: 154.3 µg/mL (≈ 1130 µM)

tested on: R. ferrugineus 4th larvae; assay: Topical application (contact insecticide) to fourth instar larvae; format: in vivo, Rhynchophorus ferrugineus; conditions: 4th larvae, topical; 95% confidence limits in brackets
Description: as §1, §2

Question: For `C=C1CC/C=C(\C)CC[C@@H]2[C@@H]1CC2(C)C` [β-caryophyllene], which “LD50 (µg/Larvae) 95% CF” value is on record?
Answer: 20.1 (18.7–21.4) µg/Larvae

Question: How did the “LD50 (µg/Larvae) 95% CF” value turn out when `C=CC(=C)CCC=C(C)CCC=C(C)C` [β-farnesene] was run?
Answer: 18.4 (17.1–19.7) µg/Larvae

same assay, conditions: larvae, topical application

Question: `C=C1CC/C=C(\C)CC[C@@H]2[C@@H]1CC2(C)C` [β-caryophyllene] was tested. Which LD50 did it give?
Answer: 20.1 µg/larva

Question: Which LD50 does the source give for `C=CC(=C)CCC=C(C)CCC=C(C)C` [β-farnesene] here?
Answer: 18.4 µg/larva

tested on: total proteases of R. ferrugineus midgut; assay: Total protease activity in midgut of treated larvae (in vivo); conditions: larvae treated 24 h, midgut preparation
Description: The homogenate of R. ferrugineus 4th midgut instar larvae (lab strain) was assayed for total proteolytic enzyme activity using azocasein, as Darrag et al. [26], with modifications. Ten 4th midgut larval homogenates were carefully removed, incised, and then rinsed in a solution containing 0.9% NaCl before even being homogenized in a buffer (500 µL) containing 5 mM dithiothreitol (DTT), 0.1% (v/v) Triton X-100, and 50 mM N-2-hydroxyethyl piperazine-N′-2-ethane sulphonic acid (HEPS), and 8.0 pH. It was spun in a centrifuge (Sigma 3k30), and the remaining homogenates were from a preliminary phase for 30 min at 5000 rpm. Using the supernatants, the protein concentration and proteolytic enzyme activity were determined. […] Before each reaction experiment, 40-day-old methanolic extract of cell suspension, pure chemicals, and 10 μL of enzyme specimens were incubated for 10 min. The addition of the substrate initiated the reaction, which was allowed for 20 min in the case of leupeptin before being terminated 180 min later by adding 300 µL of cold tri-chloroacetic acid (TCA) (10%, v/v). Twenty minutes were spent centrifuging the mixture at 5000 rpm (Sigma 3k30). Overall, 10 µL of NaOH (10 N) was added to the supernatant, and the absorbance was measured using an ELISA plate reader at 450 nm to quantify the enzymes’ specific activity as OD450/mg protein/h.
(§4) An experiment that was set up free of potential inhibitors served as a control. An ELISA plate fast reader measured the enzymes’ absorption at various wavelengths. For each inhibitor, the control enzyme’s percentage activity was assessed for each enzyme. Four instars midgut larvae were treated with previous concentrations of extracts or compounds, assessed as previously mentioned, to measure the protease activity in vivo. Larvae were subjected to extract- and compound-treated leaf discs for 24 h.

Question: For `C=C1CC/C=C(\C)CC[C@@H]2[C@@H]1CC2(C)C` [β-caryophyllene], which “IC50 total proteases (in vivo)” value is on record?
Answer: 748.2 µg/mL (≈ 3660 µM)

Question: With `C=CC(=C)CCC=C(C)CCC=C(C)C` [β-farnesene] as the molecule, how does the “IC50 total proteases (in vivo)” value read?
Answer: 675.2 µg/mL (≈ 3300 µM)

Question: How did the “IC50 total proteases (in vivo)” value turn out when `CC1=CCC(C(C)C)=CC1` [γ-terpinene] was run?
Answer: 337.4 µg/mL (≈ 2480 µM)

tested on: elastase of R. ferrugineus midgut; assay: Elastase activity in midgut of treated larvae (in vivo); parameters: species or system Rhynchophorus ferrugineus; conditions: larvae treated 24 h, midgut preparation

Question: Which “IC50 elastase (in vivo)” value does the source give for `CC1=CCC(C(C)C)=CC1` [γ-terpinene] here?
Answer: 315.8 µg/mL (≈ 2320 µM)

tested on: trypsin proteinase of R. ferrugineus midgut; assay: Trypsin activity in midgut of treated larvae (in vivo); conditions: larvae treated 24 h, midgut preparation
Description: (§5) We used a serine protease assay buffer and a modified version of the fast microplate method to analyze the serine proteinase’s specific activity in mixtures (150 µL) [26]. […] The sample (10 µL) was diluted using an assay buffer to 50 µL to determine the presence of trypsin proteinase, chymotrypsin proteinase, and elastase. Assay buffer was used to dilute stock substrates of BAρNA (100 mg/mL DMSO), both SAAPFρNA and SAAPLρNA (100 mg/mL DMF), to 1.0 mg/mL. To halt the reaction after 15 min of incubation at 37 °C, 50 µL of acetic acid (30%, v/v) was added. The intensity of the activity was measured using a 405 nm ELISA plate reader. A denaturation enzyme was used in place of an active enzyme in the experiment mixture. For three substrates (SAAPLρNA, BAρNA, and SAAPFρNA), activity levels of certain proteinases were assessed as OD mg^−1 protein min^−1.
as §4

Question: Which “IC50 trypsin proteinase (in vivo)” value does the source give for `C=C1CC/C=C(\C)CC[C@@H]2[C@@H]1CC2(C)C` [β-caryophyllene] here?
Answer: 489.3 µg/mL and 542.8 µg/mL

Question: `C=CC(=C)CCC=C(C)CCC=C(C)C` [β-farnesene] was tested. Which “IC50 trypsin proteinase (in vivo)” value did it give?
Answer: 425.8 µg/mL (≈ 2080 µM)

Question: How did the “IC50 trypsin proteinase (in vivo)” value turn out when `CC1=CCC(C(C)C)=CC1` [γ-terpinene] was run?
Answer: 594.1 µg/mL (≈ 4360 µM)

biological target: metalloprotease of R. ferrugineus midgut; assay: Metalloproteinase specific activity, CEGR substrate (in vitro); conditions: 4th instar midgut homogenate
Description: The ten midgut larvae from the fourth stage were neatly eliminated, dissected, and repeatedly washed with 0.9% NaCl solution. A 500 µL protease test solution, including 50 mM HEPS, 0.1% Triton X-100, and 5 mM DTT (pH 8.0), was utilized to homogenize the midgut instar. The homogenates were then centrifuged employing a Sigma 3k30 (cooling centrifuge) at 5000 rpm for 30 min to evaluate the supernatant’s enzyme activity and protein content. Before introducing CEGR (125 µL, 2% (w/v)), each experiment’s supernatant (10 µL) was incubated in an assay buffer (60 µL) at 37 °C for 20 min (pH 8). During a 10 min incubation period without a substrate, 10 µL enzyme samples were tested (20 min. for EDTA, EGTA, 1.10, Phenanthroline). After 180 min at 37 °C, 300 µL of cold TCA, 10% (v/v), was used to terminate the reaction. For the next 20 min, the mixture was spun (5000 rpm, Sigma 3K30). The absorbance was measured at 450 nm after mixing the supernatant with hydroxide solution (10 µL, 10 N) using an ELISA reader. An enzyme-free assay combination was utilized as a blank, and particular activity was evaluated utilizing the OD493 mg^−1 protein min^−1 and an enzyme-free blank specimen.
as §4

Question: For `C=C1CC/C=C(\C)CC[C@@H]2[C@@H]1CC2(C)C` [β-caryophyllene], which “IC50 metalloprotease (in vitro)” value is on record?
Answer: 314.5 µg/mL (≈ 1540 µM)

Question: For `C=CC(=C)CCC=C(C)CCC=C(C)C` [β-farnesene], which “IC50 metalloprotease (in vitro)” value is on record?
Answer: 101.5 µg/mL (≈ 497 µM)

Question: How did the “IC50 metalloprotease (in vitro)” value turn out when `CC1=CCC(C(C)C)=CC1` [γ-terpinene] was run?
Answer: 526.8 µg/mL (≈ 3870 µM)

biological target: total proteases of R. ferrugineus midgut; assay: Total proteolytic enzyme activity of 4th instar midgut homogenate, azocasein (in vitro); conditions: not given

Question: How did the “IC50 total proteases (in vitro)” value turn out when `C=C1CC/C=C(\C)CC[C@@H]2[C@@H]1CC2(C)C` [β-caryophyllene] was run?
Answer: 176.3 µg/mL (≈ 863 µM)

Question: Which “IC50 total proteases (in vitro)” value does the source give for `C=CC(=C)CCC=C(C)CCC=C(C)C` [β-farnesene] here?
Answer: 88.6 µg/mL (≈ 434 µM)

Question: `CC1=CCC(C(C)C)=CC1` [γ-terpinene] was tested. Which “IC50 total proteases (in vitro)” value did it give?
Answer: 268.1 µg/mL (≈ 1970 µM)

biological target: trypsin proteinase of R. ferrugineus midgut; assay: Serine proteinase specific activity, trypsin (in vitro); conditions: 4th instar midgut homogenate
Description: as §5, §4

Question: For `C=C1CC/C=C(\C)CC[C@@H]2[C@@H]1CC2(C)C` [β-caryophyllene], which “IC50 trypsin proteinase (in vitro)” value is on record?
Answer: 70.4 µg/mL (≈ 344 µM)

Question: For `C=CC(=C)CCC=C(C)CCC=C(C)C` [β-farnesene], which “IC50 trypsin proteinase (in vitro)” value is on record?
Answer: 60.2 µg/mL (≈ 295 µM)

Question: Which “IC50 trypsin proteinase (in vitro)” value does the source give for `CC1=CCC(C(C)C)=CC1` [γ-terpinene] here?
Answer: 229.7 µg/mL (≈ 1690 µM)

tested on: gut proteases of R. ferrugineus fourth larval instar; assay: Specific protease inhibitors against gut proteases of fourth larval instar (in vitro); format: biochemical, Rhynchophorus ferrugineus; conditions: Figure S2, in vitro
Description: As a starting point (blank), an assessment combination not containing enzymes was utilized. TLCK (trypsin proteinase inhibitor), PMSF (general serine proteinase inhibitor), EDTA (EDTA-metalloproteinase inhibitor), iodoacetic acid (an iodoacetic acid-cysteine proteinase inhibitor), TPCK (chymotrypsin-proteinase inhibitor), and Leupeptin (as general proteinase inhibitor) were added to the reactions. Homogenates of larval fourth-gut tissue were prepared using the same methodology described for the enzyme activity test. The inhibitory test was conducted via a microplate assay, as reported previously. A series of inhibitor levels were prepared to determine the greatest inhibition activity. Concentrations of 0.01, 0.05, 0.1, and 1.0 mM leupeptin; 0.005, 0.01, 0.05, 0.1, and 1 mM TLCK and TPCK; 0.1, 1.0, 10, 50, and 100 mM PMSF; and 0.01, 0.05, 0.1, 1, and 2 mM iodoacetic acid, 100 mM; 1,10 phenanthroline, EDTA, and EGTA concentrations of 0.1, 1, 10, 50, and 100 mM.

Question: With `c1cnc2c(c1)ccc1cccnc12` [1,10 phenanthroline] as the molecule, how does the “Effect on extracted gut proteases of the fourth larval instar” value (“Effect on extracted gut proteases” for short) read?
Answer: significantly inhibited

Question: How did the “Effect on extracted gut proteases” value turn out when `O=C(O)CN(CCN(CC(=O)O)CC(=O)O)CC(=O)O` [EDTA] was run?
Answer: significantly inhibited

Question: For `O=C(O)CN(CCOCCOCCN(CC(=O)O)CC(=O)O)CC(=O)O` [EGTA], which “Effect on extracted gut proteases” value is on record?
Answer: significantly inhibited

Question: With `Cc1ccc(S(=O)(=O)N[C@@H](CCCCN)C(=O)CCl)cc1` [TLCK] as the molecule, how does the “Effect on extracted gut proteases” value read?
Answer: significantly inhibited

Question: Which “Effect on extracted gut proteases” value does the source give for `Cc1ccc(S(=O)(=O)N[C@@H](Cc2ccccc2)C(=O)CCl)cc1` [TPCK] here?
Answer: significantly inhibited

Question: How did the “Effect on extracted gut proteases” value turn out when `O=C(O)CI` [iodoacetic acid] was run?
Answer: significantly inhibited

tested on: metalloprotease of R. ferrugineus midgut; assay: Metalloprotease activity in midgut of treated larvae (in vivo); conditions: larvae treated 24 h, midgut preparation

Question: For `C=CC(=C)CCC=C(C)CCC=C(C)C` [β-farnesene], which “IC50 metalloprotease (in vivo)” value is on record?
Answer: 545.7 µg/mL (≈ 2670 µM)
